Each structure is given as a SMILES string.

For orientation: melting point means the temperature of the solid-liquid transition.

`O=C(Nc1ncc[nH]1)C(CC1CCCC1)c1ccc(Cl)c(Cl)c1` (stereo not shown) [Example 55, 3-Cyclopentyl-2-(3,4-dichlorophenyl)-N-(1H-imidazol-2-yl)-propionamide] showed a melting point of 58 to 60 °C.

`Cc1cc(NC(=O)C(CC2CCCC2)c2ccc(Cl)c(Cl)c2)no1` (stereo not shown) [Example 56, 3-Cyclopentyl-2-(3,4-dichlorophenyl)-N-(5-methyl-isoxazol-3-yl)-propionamide] showed a melting point of 84 to 86 °C.

For `O=C(Nc1ncco1)C(CC1CCCC1)c1ccc(Cl)c(Cl)c1` (stereo not shown) [Example 57, 3-Cyclopentyl-2-(3,4-dichlorophenyl)-N-oxazol-2-yl-propionamide], the melting point lay within 134 to 136 °C.

In turn, `O=C(Nc1cccnn1)C(CC1CCCC1)c1ccc(Cl)c(Cl)c1` (stereo not shown) [Example 58, 3-Cyclopentyl-2-(3,4-dichlorophenyl)-N-pyridazin-3-yl-propionamide] had a melting point of 70 to 71 °C.

`O=C(Nc1ncccn1)C(CC1CCCC1)c1ccc(Cl)c(Cl)c1` (stereo not shown) [Example 59, 3-Cyclopentyl-2-(3,4-dichlorophenyl)-N-pyrimidin-2-yl-propionamide] displayed a melting point of 103 to 105 °C.

Take `O=C(Nc1ccncn1)[C@H](CC1CCCC1)c1ccc(Cl)c(Cl)c1` [Example 60, 3-Cyclopentyl-2(R)-(3,4-dichloro-phenyl)-N-pyrimidine-4-yl-propionamide]: the melting point fell in the range of 166.5 to 169.3 °C.

Take `C[S+]([O-])c1ccc(C(CC2CCCC2)C(=O)Nc2nccs2)cc1` (stereo not shown) [Example 61, 3-Cyclopentyl-2-(4-methanesulfinyl-phenyl)-N-thiazol-2-yl-propionamide]: the melting point was in the range of 170 to 173 °C.

As to `CCOC(=O)Cc1csc(NC(=O)C(CC2CCCC2)c2ccc(S(=O)(=O)C(F)(F)F)cc2)n1` (stereo not shown) [Example 62, {2-[3-Cyclopentyl-2-(4-trifluoromethanesulfonyl-phenyl)-propionylamino]-thiazol-4-yl}-acetic acid ethyl ester], the melting point lay in the range of 48 to 51 °C.

In turn, `O=C(Nc1ccc(Br)cn1)C(CC1CCCC1)c1ccc(S(=O)(=O)C(F)(F)F)cc1` (stereo not shown) [Example 63, N-(5-Bromo-pyridin-2-yl)-3-cyclopentyl-2-(4-trifluoromethanesulfonyl-phenyl)-propionamide] gave a melting point of 130 to 132 °C.

Take `O=C(Nc1nccs1)C(CC1CCCC1)c1ccc(Cl)c([N+](=O)[O-])c1` (stereo not shown) [Example 64, 2-(4-Chloro-3-nitro-phenyl)-3-cyclopentyl-N-thiazol-2-yl-propionamide]: the melting point was 68 to 72 °C.

Take `CS(=O)(=O)c1ccc(C(CC2CCCC2)C(=O)Nc2ccc(Br)cn2)cc1[N+](=O)[O-]` (stereo not shown) [Example 66, N-(5-Bromo-pyridin-2-yl)-3-cyclopentyl-2-(4-methanesulfonyl-3-nitro-phenyl)-propionamide]: the melting point was in the range of 80 to 83 °C.

`CS(=O)(=O)c1ccc(C(CC2CCCC2)C(=O)Nc2nccs2)cc1NO` (stereo not shown) [Example 67, 3-Cyclopentyl-2-(3-hydroxyamino-4-methanesulfonyl-phenyl)-N-thiazol-2-yl-propionamide]: the melting point was in the range of 124 to 126 °C.

Consider `CS(=O)(=O)c1ccc(C(CC2CCCC2)C(=O)Nc2nccs2)cc1N` (stereo not shown) [Example 68, 2-(3-Amino-4-methanesulfonyl-phenyl)-3-cyclopentyl-N-thiazol-2-yl-propionamide], for which the melting point lay in the range of 207 to 209 °C.

In turn, `O=C(Nc1nccs1)C(CC1CCCC1)c1cccc(S(=O)(=O)C(F)(F)F)c1` (stereo not shown) [Example 69, 3-Cyclopentyl-N-thiazol-2-yl-2-(3-trifluoromethanesulfonyl-phenyl)-propionamide] returned a melting point of 61 to 64 °C.

In the case of `O=C(Nc1nccs1)C(CC1CCCC1)c1ccc(C(F)(F)F)c(F)c1` (stereo not shown) [Example 70, 3-Cyclopentyl-2-(3-fluoro-4-trifluoromethyl-phenyl)-N-thiazol-2-yl-propionamide], the melting point is 194 to 195 °C.

Molecule `CS(=O)(=O)c1ccc(C(CC2CCCC2)C(=O)Nc2ccc(Br)cn2)cc1Br` (stereo not shown) [Example 74, 2-(3-Bromo-4-methanesulfonyl-phenyl)-N-(5-bromo-pyridin-2-yl)-3-cyclopentyl-propionamide] returned a melting point of 83 to 86 °C.

The molecule `CCS(=O)(=O)c1ccc(C(CC2CCCC2)C(=O)Nc2ccccn2)cc1` (stereo not shown) [Example 78, 3-Cyclopentyl-2-(4-ethanesulfonyl-phenyl)-N-pyridin-2-yl-propionamide] displayed a melting point of 144 to 145 °C.

In the case of `CS(=O)(=O)c1ccc(C(CC2CCCC2)C(=O)Nc2nccs2)cc1S(C)(=O)=O` (stereo not shown) [Example 79, 2-(3,4-Bis-methanesulfonyl-phenyl)-3-cyclopentyl-N-thiazol-2-yl-propionamide], the melting point lay in the range of 104 to 107 °C.

The molecule `O=C(Nc1nccnn1)C(CC1CCCC1)c1ccc(Cl)c(Cl)c1` (stereo not shown) [Example 81, 3-Cyclopentyl-2-(3,4-dichlorophenyl)-N-[1,2,4]triazin-3-yl-propionamide] gave a melting point of 81 to 83 °C.

Consider `NS(=O)(=O)c1ccc(C(CC2CCCC2)C(=O)Nc2nccs2)cc1` (stereo not shown) [Example 82, 3-Cyclopentyl-2-(4-sulfamoyl-phenyl)-N-thiazol-2-yl-propionamide], for which the melting point is 179 to 181 °C.

`O=C(Nc1nncs1)C(CC1CCCC1)c1ccc(Cl)c(Cl)c1` (stereo not shown) [Example 83, 3-Cyclopentyl-2-(3,4-dichlorophenyl)-N-[1,3,4]thiadiazol-2-yl-propionamide] gave a melting point of 90 to 91 °C.

For the molecule `N#Cc1ccc(C(CC2CCCC2)C(=O)Nc2nccs2)cc1` (stereo not shown) [Example 84(A), 2-(4-Cyano-phenyl)-3-cyclopentyl-N-thiazol-2-yl-propionamide], the melting point lay in the range of 64 to 66 °C.

In turn, `CCCCS(=O)(=O)c1ccc(C(CC2CCCC2)C(=O)Nc2nccs2)cc1` (stereo not shown) [Example 86(A), 2-[4-(Butane-1-sulfonyl)-phenyl]-3-cyclopentyl-N-thiazol-2-yl-propionamide] registered a melting point of 163 to 165 °C.

`O=C(Nc1nccs1)C(CC1CCCC1)c1ccc(F)c(C(F)(F)F)c1` (stereo not shown) [Example 87(A), 3-Cyclopentyl-2-(4-fluoro-3-trifluoromethyl-phenyl)-N-thiazol-2-yl-propionamide] had a melting point of 125 to 127 °C.

Consider `O=C(Nc1nccs1)C(CC1CCCC1)c1cccc(C(F)(F)F)c1` (stereo not shown) [Example 88, 3-Cyclopentyl-N-thiazol-2-yl-2-(3-trifluoromethyl-phenyl)-propionamide], for which the melting point fell in the range of 134 to 136 °C.

Molecule `CS(=O)(=O)c1ccc(C(CC2CCCC2)C(=O)Nc2ccccn2)cc1C(F)(F)F` (stereo not shown) [Example 90, 3-Cyclopentyl-2-(4-methanesulfonyl-3-trifluoromethyl-phenyl)-N-pyridin-2-yl-propionamide] gave a melting point of 86 to 89 °C.

In turn, `O=C(Nc1ccc(C(F)(F)F)cn1)[C@H](CC1CCCC1)c1ccc(Cl)c(Cl)c1` [Example 101, 3-Cyclopentyl-2(R)-(3,4-dichloro-phenyl)-N-(5-trifluoromethyl-pyridin-2-yl)-propionamide] displayed a melting point of 113.8 to 117.5 °C.

Consider `CNC(=O)c1ccc(NC(=O)C(CC2CCCC2)c2ccc(Cl)c(Cl)c2)nc1` (stereo not shown) [Example 103, 6-[3-Cyclopentyl-2-(3,4-dichloro-phenyl)-propionylamino]-N-methyl-nicotinamide], for which the melting point is 229.1 to 231.7 °C.

Regarding `O=C(Nc1cnccn1)C(CC1CCCC1)c1ccc(Cl)c(Cl)c1` (stereo not shown) [Example 104, 3-Cyclopentyl-2-(3,4-dichloro-phenyl)-N-pyrazin-2-yl-propionamide], the melting point was 46.5 to 51.3 °C.

Regarding `O=C(Nc1ccc(Br)cn1)[C@H](CC1CCCC1)c1ccc(Cl)c(Cl)c1` [Example 105, N-(5-Bromo-pyridin-2-yl)-3-cyclopentyl-2(R)-(3,4-dichloro-phenyl)-propionamide], the melting point lay within 107.3 to 109.9 °C.

For `O=C(Nc1nccs1)C(CC1CCCC1)c1cccc([N+](=O)[O-])c1` (stereo not shown) [Example 109, 3-Cyclopentyl-2-(3-nitrophenyl)-N-thiazol-2-yl-propionamide], the melting point lay within 171 to 174 °C.

Take `COc1cccc(C(CC2CCCC2)C(=O)Nc2nccs2)c1` (stereo not shown) [Example 110, 3-Cyclopentyl-2-(3-methoxy-phenyl)-N-thiazol-2-yl-propionamide]: the melting point lay within 44 to 45 °C.

The molecule `O=C(Nc1nccs1)C(CC1CCCC1)c1cccc(O)c1` (stereo not shown) [Example 111, 3-Cyclopentyl-2-(3-hydroxy-phenyl)-N-thiazol-2-yl-propionamide] returned a melting point of 177 to 179 °C.

In turn, `COc1ccc(C(CC2CCCC2)C(=O)Nc2nccs2)cc1OC` (stereo not shown) [Example 113, 3-Cyclopentyl-2-(3,4-dimethoxy-phenyl)-N-thiazol-2-yl-propionamide] registered a melting point of 50 to 52 °C.

The molecule `O=C(Nc1nccs1)C(CC1CCCC1)c1ccc(O)c(O)c1` (stereo not shown) [Example 114, 3-Cyclopentyl-2-(3,4-dihydroxy-phenyl)-N-thiazol-2-yl-propionamide] had a melting point of 170 to 173 °C.

`COc1ccc(C(CC2CCCC2)C(=O)Nc2nccs2)cc1` (stereo not shown) [Example 115, 3-Cyclopentyl-2-(4-methoxy-phenyl)-N-thiazol-2-yl-propionamide] showed a melting point of 166 to 167 °C.

For `O=C(Nc1nccs1)C(CC1CCCC1)c1ccc(O)cc1` (stereo not shown) [Example 116, 3-Cyclopentyl-2-(4-hydroxy-phenyl)-N-thiazol-2-yl-propionamide], the melting point lay in the range of 198 to 200 °C.

In the case of `COC(=O)c1ccc(C(CC2CCCC2)C(=O)Nc2nccs2)cc1` (stereo not shown) [Example 117, 4-[2-Cyclopentyl-1-(thiazol-2-ylcarbamoyl)-ethyl]-benzoic acid methyl ester], the melting point fell in the range of 54 to 56 °C.

With `COc1ccc(C(CC2CCCC2)C(=O)Nc2nccs2)cc1F` (stereo not shown) [Example 118, 3-Cyclopentyl-2-(3-fluoro-4-methoxy-phenyl)-N-thiazol-2-yl-propionamide], the melting point was 51 to 53 °C.

For the molecule `O=C(Nc1nccs1)C(CC1CCCC1)c1ccc(O)c(F)c1` (stereo not shown) [Example 119, 3-Cyclopentyl-2-(3-fluoro-4-hydroxy-phenyl)-N-thiazol-2-yl-propionamide], the melting point was 199 to 201 °C.

The record behind these values is patent US6610846B1, “Heteroaromatic glucokinase activators” (Hoffman-La Roche Inc., priority 1999, dated 2003).
